Values joined by “and” are separate entries in the source; they are usually repeats but may differ in a detail not shown here. Identical values can stand only once.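 Values below derive from 48-hour exposures of cells grown in 96-well plates, with endpoints linearly interpolated between the two concentrations bracketing the appropriate inhibition level. TGI: total growth inhibition.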
What was measured:
Experiment in all cases: inhibition of tumour cell growth, NCI panel, 48 h
EKVX NSCLC = system: EKVX NSCLC
HCT-15 colon = system: HCT-15 colon
UACC-257 melanoma = system: UACC-257 melanoma
UO-31 renal = system: UO-31 renal
RXF 393 renal = system: RXF 393 renal
A549 NSCLC = system: A549 NSCLC
BT-549 breast = system: BT-549 breast
SK-MEL-28 melanoma = system: SK-MEL-28 melanoma
HCT-116 colon = system: HCT-116 colon
IGROV1 ovarian = system: IGROV1 ovarian
ACHN renal = system: ACHN renal
CCRF-CEM leukemia = system: CCRF-CEM leukemia
HT29 colon = system: HT29 colon
DU-145 prostate = system: DU-145 prostate
SK-MEL-5 melanoma = system: SK-MEL-5 melanoma
NCI-H522 lung = system: NCI-H522 lung
786-0 renal = system: 786-0 renal
MCF7 breast = system: MCF7 breast
KM12 colon = system: KM12 colon
SNB-19 CNS = system: SNB-19 CNS

CC(C)(C)c1cc(-c2cc(C(C)(C)C)n(-c3ccccc3)n2)nn1-c1ccccc1 showed a TGI (EKVX NSCLC) of over 100 µM, a TGI (HCT-15 colon) of over 100 µM and a TGI (UACC-257 melanoma) of over 100 µM. It also gave a TGI (UO-31 renal) of over 100 µM, a TGI (RXF 393 renal) of over 100 µM and a TGI (A549 NSCLC) of over 100 µM. It also gave a TGI (BT-549 breast) of over 100 µM, a TGI (SK-MEL-28 melanoma) of over 100 µM and a TGI (HCT-116 colon) of over 100 µM. It also gave a TGI (IGROV1 ovarian) of over 100 µM, a TGI (ACHN renal) of over 100 µM and a TGI (CCRF-CEM leukemia) of over 100 µM. For the same compound, the TGI (HT29 colon) was over 100 µM, the TGI (DU-145 prostate) was over 100 µM and the TGI (SK-MEL-5 melanoma) was over 100 µM. For the same compound, the TGI (NCI-H522 lung) was over 100 µM, the TGI (786-0 renal) was over 100 µM and the TGI (MCF7 breast) was over 100 µM. For the same compound, the TGI (KM12 colon) was over 100 µM.
Cc1nc2ccc(S(=O)(=O)Nc3ccccc3)cc2c(=O)n1NC(=O)CNc1ccccc1 gave a TGI (SNB-19 CNS) of over 100 µM, a TGI (EKVX NSCLC) of over 100 µM and a TGI (HCT-15 colon) of over 100 µM. For the same compound, the TGI (UACC-257 melanoma) was over 100 µM, the TGI (UO-31 renal) was over 100 µM and the TGI (A549 NSCLC) was over 100 µM. The TGI (BT-549 breast) was over 100 µM, the TGI (SK-MEL-28 melanoma) was over 100 µM and the TGI (HCT-116 colon) was over 100 µM. The TGI (IGROV1 ovarian) was over 100 µM, the TGI (ACHN renal) was over 100 µM and the TGI (CCRF-CEM leukemia) was over 100 µM. For the same compound, the TGI (HT29 colon) was over 100 µM, the TGI (DU-145 prostate) was over 100 µM and the TGI (NCI-H522 lung) was over 100 µM. The TGI (786-0 renal) was over 100 µM, the TGI (MCF7 breast) was over 100 µM and the TGI (KM12 colon) was over 100 µM.
For CCOP(=O)(CCCC(O)CNc1cc(Cl)nc(N)n1)OCC (configuration not stated), the TGI (EKVX NSCLC) was over 100 µM, the TGI (HCT-15 colon) was over 100 µM and the TGI (UACC-257 melanoma) was over 100 µM. For the same compound, the TGI (UO-31 renal) was over 100 µM, the TGI (RXF 393 renal) was over 100 µM and the TGI (A549 NSCLC) was over 100 µM. It also gave a TGI (BT-549 breast) of over 100 µM, a TGI (SK-MEL-28 melanoma) of over 100 µM and a TGI (HCT-116 colon) of over 100 µM. For the same compound, the TGI (IGROV1 ovarian) was over 100 µM, the TGI (ACHN renal) was over 100 µM and the TGI (CCRF-CEM leukemia) was over 100 µM. The TGI (HT29 colon) was over 100 µM, the TGI (DU-145 prostate) was over 100 µM and the TGI (SK-MEL-5 melanoma) was over 100 µM. For the same compound, the TGI (NCI-H522 lung) was over 100 µM, the TGI (786-0 renal) was over 100 µM and the TGI (MCF7 breast) was over 100 µM. For the same compound, the TGI (KM12 colon) was over 100 µM.
With O=C(O)CN1CCN2CCOCCOCCN(CC1)CCN(CC(=O)O)CC2 the TGI (SNB-19 CNS) was over 100 µM, the TGI (EKVX NSCLC) was over 100 µM and the TGI (HCT-15 colon) was over 100 µM. For the same compound, the TGI (UACC-257 melanoma) was over 100 µM, the TGI (UO-31 renal) was over 100 µM and the TGI (A549 NSCLC) was over 100 µM. For the same compound, the TGI (BT-549 breast) was over 100 µM, the TGI (SK-MEL-28 melanoma) was over 100 µM and the TGI (HCT-116 colon) was over 100 µM. For the same compound, the TGI (IGROV1 ovarian) was over 100 µM, the TGI (ACHN renal) was over 100 µM and the TGI (CCRF-CEM leukemia) was over 100 µM. For the same compound, the TGI (HT29 colon) was over 100 µM, the TGI (DU-145 prostate) was over 100 µM and the TGI (SK-MEL-5 melanoma) was over 100 µM. For the same compound, the TGI (NCI-H522 lung) was over 100 µM, the TGI (786-0 renal) was over 100 µM and the TGI (MCF7 breast) was over 100 µM. The TGI (KM12 colon) was over 100 µM.
In the case of CC(=O)OCC(OC(C)=O)C(OC(C)=O)C(OC(C)=O)C(C=NN(C(C)=O)S(=O)(=O)c1ccc(/C=C2\NC(=O)N(C)C2=O)cc1)OC(C)=O (configuration not stated), the TGI (SNB-19 CNS) is reported as over 100 µM, the TGI (EKVX NSCLC) is reported as 78.5 µM and > 100 µM and the TGI (HCT-15 colon) is reported as 61.9 µM and 67.1 µM. For the same compound, the TGI (UACC-257 melanoma) was over 100 µM, the TGI (UO-31 renal) was over 100 µM and the TGI (RXF 393 renal) was 34.4 µM and 52.1 µM. The TGI (A549 NSCLC) was over 100 µM, the TGI (BT-549 breast) was 49.4 µM and > 100 µM and the TGI (HCT-116 colon) was 47.2 µM and 37.4 µM. The TGI (IGROV1 ovarian) was 75.2 µM and > 100 µM, the TGI (ACHN renal) was over 100 µM and the TGI (CCRF-CEM leukemia) was 41.6 µM. For the same compound, the TGI (HT29 colon) was over 100 µM, the TGI (DU-145 prostate) was over 100 µM and the TGI (SK-MEL-5 melanoma) was 90.3 µM and 86.2 µM. For the same compound, the TGI (NCI-H522 lung) was 72.9 µM, the TGI (786-0 renal) was 80 µM and 68.9 µM and the TGI (MCF7 breast) was over 100 µM. It also gave a TGI (KM12 colon) of over 100 µM.
O=S1CCS(=O)CCS(=O)CC1 (configuration not stated) was tested, and the TGI (SNB-19 CNS) was over 100 µM, the TGI (EKVX NSCLC) was over 100 µM and the TGI (HCT-15 colon) was over 100 µM. It also gave a TGI (UACC-257 melanoma) of over 100 µM, a TGI (UO-31 renal) of over 100 µM and a TGI (A549 NSCLC) of over 100 µM. The TGI (BT-549 breast) was over 100 µM, the TGI (SK-MEL-28 melanoma) was over 100 µM and the TGI (HCT-116 colon) was over 100 µM. The TGI (IGROV1 ovarian) was over 100 µM, the TGI (CCRF-CEM leukemia) was over 100 µM and the TGI (HT29 colon) was over 100 µM. For the same compound, the TGI (DU-145 prostate) was over 100 µM, the TGI (SK-MEL-5 melanoma) was over 100 µM and the TGI (NCI-H522 lung) was over 100 µM. For the same compound, the TGI (786-0 renal) was over 100 µM, the TGI (MCF7 breast) was over 100 µM and the TGI (KM12 colon) was over 100 µM.

Reference: PubChem BioAssay (NCI)
